The record followed here is patent US5977435A, “Plant phosphatases” (Performance Plants, Inc., priority 1997, dated 1999).

Structures can show the parent of a compound that is named as a salt. Where two headings read alike, the source gives them in different places.

Usually Km stands for the concentration of substrate that gives half-maximal velocity.

For series [1], the target named is T1, potato phosphatase (Solanum tuberosum, UniProt Q6J5M8).
T1 sequence (Q6J5M8 with tags, fused parts or gaps V118I/E238V/S277N/V282G/E319A/A394T/S415A/T416I/D418E/I426Y/H428S/N437A): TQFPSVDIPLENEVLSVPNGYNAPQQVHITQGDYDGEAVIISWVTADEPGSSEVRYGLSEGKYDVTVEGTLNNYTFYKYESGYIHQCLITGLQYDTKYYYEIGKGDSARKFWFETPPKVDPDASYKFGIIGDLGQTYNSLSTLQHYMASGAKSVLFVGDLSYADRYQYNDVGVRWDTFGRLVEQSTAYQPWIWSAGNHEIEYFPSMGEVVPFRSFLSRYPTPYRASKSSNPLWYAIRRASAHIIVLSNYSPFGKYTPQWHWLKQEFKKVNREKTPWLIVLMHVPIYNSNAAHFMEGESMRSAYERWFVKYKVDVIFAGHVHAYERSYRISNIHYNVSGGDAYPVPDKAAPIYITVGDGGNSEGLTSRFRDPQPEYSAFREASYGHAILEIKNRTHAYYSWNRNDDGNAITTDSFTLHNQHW
Briefly: biochemical. On the set-up: mature chain from Thr30, C-terminus not determined. In kind it is biochemical. On the procedure:
Enzyme activity in the presence of effectors is expressed relative to the control set at 100%.
(§1) Assays were initiated by the addition of enzyme preparation. One unit of phosphatase activity is defined as the quantity of enzyme that would catalyze the hydrolysis of 1 […] of substrate/min at 25° C.

The target in series [2] is T1, potato phosphatase. Briefly: biochemical. The series is classed as biochemical. As to conditions: for activation of the phosphatase: 4 mM, added as Cl- salt, Ca, Co, Mn with no added Mg2+. On the set-up: mature chain from Thr30, C-terminus not determined. On the procedure:
Unless otherwise stated all kinetic studies of the potato phosphatase were performed with PEP using assay A (infra).
The phosphatase was activated approximately 40% in the presence of saturating (4 mM) Mg^2+ (added as MgCl2). Ca^2+, Co^2+, and Mn^2+ were individually tested as Cl^- salts at 4 mM, with no added Mg^2+, and found to uniformly activate the enzyme by about 30%. […]. […] All subsequent kinetic studies were conducted in the presence of 4 mM MgCl2.
as §1

The target in series [3] is T1, potato phosphatase. The series is described as follows: Phosphatase assay B, substrate specificity. As to conditions: for Vmax: pH 5.8, 25° C; for activity of purified enzyme with compound as substrate: tested at 5 mM. Here is the method: Phosphatase activity was determined using assay B and a wide range of compounds, tested at a total concentration of 5 mM unless otherwise specified.
Phosphatase (0.05 units) was incubated in 1.5 mL cuvettes with 0.9 mL of 50 mM MES-NaOH (pH 5.8) containing 4 mM MgCl2 and an alternative substrate (5 mM unless otherwise indicated) for 6 min at 25° C. Reactions were terminated by the sequential addition of 0.1 mL reagent A (3 M H2 SO4 containing 20 mM ammonium molybdate) and […] of 1% (v/v) Triton X-100. Samples were incubated at 25° C. for 20 min and the A660 was determined. To calculate activities, a standard curve over the range of […] Pi was constructed for each set of assays. Assays were performed in triplicate and controls were run for background amounts of Pi present at each substrate concentration by adding reagent A before the enzyme.

Series [4] deals with potato tuber phosphotyrosyl proteins. Briefly: Dephosphorylation of potato tuber phosphotyrosyl proteins by potato tuber phosphatase. In kind it is biochemical, Solanum tuberosum. As to conditions: 1 mM present during incubation. On the procedure: A desalted potato tuber extract was incubated at 25° C. in the absence (-) and presence (+) of 30 units/mL purified potato tuber phosphatase. Aliquots were removed at 2 and 19 h and analyzed by immunoblotting using anti-(P-Tyr) IgG (Kamps and Sefton, 1988). The relative P-Tyr content of the 7 antigenic polypeptides was estimated by laser densitometric quantification of the immunoblots as described in the examples. Unless otherwise noted, all values represent the means±SE of triplicate determinations. ^a, the mean of duplicate determinations.
Electroblotting was performed by the method of Moorhead and Plaxton (1990), with the addition of […] o-vanadate to the transfer buffer when maintenance of phosphotyrosyl residues was desired. All immunoblots to be probed with the anti-(black mustard PEP-specific phosphatase) IgG (Duff et al, 1991a) were first pre-treated with sodium m-periodate according to Laine (1988) so as to oxidize antigenic oligosaccharide chains of endogenous tuber glycoproteins. Immunological detection of phosphotyrosylated tuber proteins using anti-(P-Tyr) IgG (Kamps and Sefton, 1988) was performed as referenced above except that the blocking buffer contained 5% (w/v) bovine serum albumin (fraction V) and 1% (w/v) ovalbumin instead of 3% (w/v) defatted milk powder.
Antigenic polypeptides were visualized using an alkaline-phosphatase-taggedsecondary antibody (Moorhead and Plaxton, 1990). Immunological specificities were confirmed by performing immunoblots in which rabbit preimmune serum was substituted for the affinity-purified IgGs. An LKB Ultroscan XL Enhanced Laser Densitometer was used to scan indicated immunoblots. Densitometric data were analysed using the LKB Gelscan XL software (version 2.1). Immunoreactive polypeptides were quantified in terms of their relative absorbance at 633 nm wavelength (A633).
Peeled and diced potato tuber tissue (5 g) was homogenized with a Polytron in 1 volume of 100 mM MES-NaOH (pH 5.8) containing 2 mM PMSF, 2 mM DTT, and 1 mM EDTA. The homogenate was centrifuged for 10 min at 13,000 g in an Eppendorf microfuge, and a 3-mL aliquot of the supernatant fluid was passed at 4° C. through a BioRad Econo-Pac 10DG desalting column that had been pre-equilibrated in homogenization buffer lacking PMSF. Aliquots (0.1 mL) of the desalted crude extract were incubated at 25° C. with and without 3 units of the purified potato phosphatase. Samples were removed at 0, 2 and 19 h and analyzed by immunoblotting using the anti-(P-Tyr) IgG as described supra. Laser densitometric scanning and immunoquantification of the blots was performed as described supra.

Where [5] appears, read: pH 5.8; read-out: Relative Activity.
The mark [6] stands for this setting: 5 mM; PEP 0.25 mM; no effect = ±15% control activity.
The mark [7] stands for this setting: purified potato phosphatase, assay B.
Where [8] appears, read: pH 5.8, read-out: Relative Activity.
The mark [9] stands for this setting: addition 5 mM; PEP 0.25 mM; control = 100%.
[10] abbreviates: addition 0.001 mM; PEP 0.25 mM; control = 100%.

Take `O=C1O[C@H]([C@@H](O)CO)C(O)=C1O` [Ascorbate]: the activity at 5000 µM on potato phosphatase [1] (setting [5]) was found to be 12%.

As for `[Co+2]` [Co^2+], on potato phosphatase [2], the “activation of the phosphatase” value is given as “about 30%”.

As to `O=C(O)C(O)C(O)C(=O)O` (stereo not drawn) [tartrate], the “effect on enzyme activity” value on potato phosphatase [1] (setting [6]) is “no effect”.

As for `O=P(O)(O)OP(=O)(O)O` [PPi], on potato phosphatase [3] (apparent Km, purified potato phosphatase, assay B), the Michaelis-Menten constant (Km) was determined as 4.42 mM. For the same molecule, the Vmax on potato phosphatase [3] (setting [7]) is given as 1728 units/mg.

For the molecule `O=P(O)(O)OC1C(OP(=O)(O)O)C(OP(=O)(O)O)C(OP(=O)(O)O)C(OP(=O)(O)O)C1OP(=O)(O)O` (stereo not drawn) [Phytate, the salt of 1,2,3,4,5,6-cyclohexanehexolphosphoric acid], at potato phosphatase [1] (setting [5]), the activity at 100 µM is 48%.

Take `CCN1C(=O)C=CC1=O` [N-ethylmaleimide]: at potato phosphatase [1] (1 mM, preincubation up to 2 min at 25° C), the “effect on enzyme activity after preincubation of enzyme” value is recorded as “no effect”.

For the molecule `O=C(O)CN(CCN(CC(=O)O)CC(=O)O)CC(=O)O` [EDTA], the activity at 5000 µM on potato phosphatase [1] (setting [8]) worked out at 32%. Moreover, at potato phosphatase [2] (pH 5.8, read-out: reduction of activity), the inhibition at 5000 µM was around 65%.

As for `[Ca+2]` [Ca^2+], on potato phosphatase [2], the “activation of the phosphatase” value is “about 30%”.

Regarding `[Cl-].[Na+]` [NaCl], the “effect on enzyme activity” value on potato phosphatase [1] was “no effect”.

`[Cl-].[K+]` [KCl]: at potato phosphatase [1] (setting [6]), the “effect on enzyme activity” value was “no effect”.

Consider `N[C@@H](CC(=O)O)C(=O)O` [Asparatate], for which the “Relative Activity” value at potato phosphatase [1] (setting [9]) was 64%.

As for `Nc1ncnc2c1ncn2[C@@H]1O[C@H](COP(=O)(O)O)[C@@H](O)[C@H]1O` [AMP], the “activity of purified enzyme with compound as substrate” value at potato phosphatase [3] (assay B) is recorded as “little or no activity”.

`[Cl-].[Cl-].[Mg+2]` [Mg^2+]: the “activation of the phosphatase” value at potato phosphatase [2] is listed as “approximately 40%”.

As for `O=C(O)CN(CCOCCOCCN(CC(=O)O)CC(=O)O)CC(=O)O` [EGTA], the activity at 5000 µM at potato phosphatase [1] (setting [5]) came out at 72%.

Take `[Mn+2]` [Mn^2+]: on potato phosphatase [2], the “activation of the phosphatase” value was “about 30%”.

Take `[O]=[V]([O-])([O-])[O-]` [Vanadate]: in series [4], the “effect on the phosphatase-caused decrease in protein P-Tyr content” value was “negated”. Also, the “Relative Activity” value at potato phosphatase [1] (addition 0.005 mM; PEP 0.25 mM; control = 100%) was found to be 40%; on potato phosphatase [1] (addition 0.05 mM; PEP 0.25 mM; control = 100%), 7%.

With Molybdate, the “Relative Activity” value on potato phosphatase [1] (setting [10]) worked out at 40%; on potato phosphatase [1] (addition 0.01 mM; PEP 0.25 mM; control = 100%) it was 7%; on potato phosphatase [1] (addition 1 mM; PEP 0.25 mM; control = 100%), 0%.

Take `C[C@@H](OP(=O)(O)O)[C@H](N)C(=O)O` [P-Tbr]: the Vmax on potato phosphatase [3] (setting [7]) was determined as 99 units/mg.

For `C=C1[C@@H](O)[C@@H]2O[C@]3(CC[C@H](/C=C/[C@@H](C)[C@@H]4CC(C)=C[C@@]5(O[C@H](C[C@@](C)(O)C(=O)O)CC[C@H]5O)O4)O3)CC[C@H]2O[C@@H]1[C@@H](O)C[C@H](C)[C@H]1O[C@@]2(CCCCO2)CC[C@H]1C` [okadaic acid], the “effect on enzyme activity” value at potato phosphatase [1] (1 μM; PEP 0.25 mM; no effect = ±15% control activity) is “no effect”.

Turning to `[F-].[Na+]` [NaF], the “Relative Activity” value at potato phosphatase [1] (setting [9]) was 56%.

In the case of `Nc1ncnc2c1ncn2[C@@H]1O[C@H](COP(=O)(O)OP(=O)(O)O)[C@@H](O)[C@H]1O` [Mg-ADP], the Vmax on potato phosphatase [3] (setting [7]) is reported as 46 units/mg.

With `C=C(OP(=O)(O)O)C(=O)O` [PEP], the Vmax at potato phosphatase [3] (setting [7]) is given as 764 units/mg.

On to `[Cl-].[Cl-].[Zn+2]` [ZnCl2], for which the “inhibition of phosphatase activity” value against potato phosphatase [2] (5 mM, in place of added Mg2+) was “completely inhibited”.

On to `O=P(O)(O)OC1O[C@H](CO)[C@@H](O)[C@H](O)[C@H]1O` (stereo partly drawn) [Glc-1-P], for which the “activity of purified enzyme with compound as substrate” value on potato phosphatase [3] (assay B) is recorded as “little or no activity”.

Turning to `O=C(O)CC(O)(CC(=O)O)C(=O)O` [Mg-citrate], the “effect on enzyme activity” value on potato phosphatase [1] (setting [6]) is “no effect”.

As to `N[C@@H](CCC(=O)N[C@@H](CS)C(=O)NCC(=O)O)C(=O)O` [GSH], the activity at 5000 µM at potato phosphatase [1] (setting [8]) came to 131%.

As for `NC(CCC(=O)O)C(=O)O` (stereo not drawn) [Glutaamate], at potato phosphatase [1] (setting [5]), the activity at 5000 µM is 30%.

In the case of NH4 Cl, the “effect on enzyme activity” value at potato phosphatase [1] (setting [6]) is “no effect”.

B1: Phosvitin: egg yolk storage phosphoprotein (protein)
chain: AEFGTEPDAKTSSSSSSASSTATSSSSSSASSPNRKKPMDEEENDQVKQARNKDASSSSRSSKSSNSSKRSSSKSSNSSKRSSSSSSSSSSSSRSSSSSSSSSSNSKSSSSSSKSSSSSSRSRSSSKSSSSSSSSSSSSSSKSSSSRSSSSSSKSSSHHSHSHHSGHLNGSSSSSSSSRSVSHHSHEHHSGHLEDDSSSSSSSSVLSKIWGRHEIYQ
modifications: phosphoserine (Ser is the predominant phosphorylated amino acid of phosvitin)
notes: egg yolk storage phosphoprotein
Turning to B1, the phosphoprotein phosphatase activity with potato phosphatase [3] (phosvitin at 50 μg/ml (125 .eta.M)) came out at 220 units/mg. Besides, the “Relative Activity” value with potato phosphatase [1] (setting [10]) came out at 19%.
